Source: patent US6770290B1, “Amphotericin B liposome preparation” (priority 1987, dated 2004)

Tested on: Candida albicans
Experiment: Therapeutic efficacy in C. albicans infected mice
Assay type: in vivo
Conditions: single dose 3 days post infection; for 29 SURVIVORS (%) / surviving mice at day 29 post infection: n = 8 per group
Description: 360.1 mg of the spray dried powder were hydrated at 65 degrees Centigrade for 40 minutes with 9% lactose containing 10 mM succinate buffer, pH 5.62. Liposomes were prepared by sonication for four minutes with a ½ probe at 65° C. under a nitrogen atmosphere. Three successive batches of liposomes were prepared in a similar fashion. After sterile filtration, the Amphotericin B concentration was determined to be 1.73 mg/ml.
For therapeutic efficacy studies, groups of 8 mice were given intravenous inoculations of 3.5×10^5 Candida albicans yeast cells. Three days post-infection, animals were treated with a single dose of either free Amphotericin B or liposomal Amphotericin B. A severe systemic infection existed in animals which were not treated until three days post infection. Each successive group was treated with an increasing dose of medicament in order to establish a dose response relationship. Twenty-nine days after infection the study was evaluated for surviving animals. All untreated control animals had died by 8 days post-infection, with a median survival of 7 days. […] In contrast, all animals treated with 10 or 15 mg/kg of liposomal Amphotericin B were still alive […] post infection.

C[C@@H]1[C@H](O)[C@@H](C)/C=C/C=C/C=C/C=C/C=C/C=C/C=C/[C@H](O[C@@H]2O[C@H](C)[C@@H](O)[C@H](N)[C@@H]2O)C[C@@H]2O[C@](O)(C[C@@H](O)C[C@@H](O)[C@H](O)CC[C@@H](O)C[C@@H](O)CC(=O)O[C@H]1C)C[C@H](O)[C@H]2C(=O)O [FREE AM B, Amphotericin B]
29 SURVIVORS (%) (AMB dose 0.5 mg/kg): (0%) | surviving mice at day 29 post infection (AMB dose 0.5 mg/kg): 0 | 29 SURVIVORS (%) (AMB dose 1.0 mg/kg): (0%) | surviving mice at day 29 post infection (AMB dose 1.0 mg/kg): 0 | 29 SURVIVORS (%) (AMB dose 1.5 mg/kg): (0%) | surviving mice at day 29 post infection (AMB dose 1.5 mg/kg): 0 | survivors at 29 days post infection (any dose level): no dose level of free Amphotericin B which produced any survivors
